Where two headings read alike, the source gives them in different places.
Experiments:
Rho kinase 1 = Rho kinase 1 (Homo sapiens (Human), UniProt Q13464); test: biochemical
Rho kinase 2 = Rho kinase 2 (Homo sapiens (Human), UniProt O75116); test: Rho Kinase Inhibition Assay (IMAP fluorescence polarization), Rho kinase 2; format: biochemical; settings: isolated enzyme, 10 μM ATP, 60 minutes at room temperature
[1] = Rho kinase 1 Ki, isolated enzyme, 10 μM ATP, 60 minutes at room temperature

Sequence of Rho kinase 2 (O75116 11-552): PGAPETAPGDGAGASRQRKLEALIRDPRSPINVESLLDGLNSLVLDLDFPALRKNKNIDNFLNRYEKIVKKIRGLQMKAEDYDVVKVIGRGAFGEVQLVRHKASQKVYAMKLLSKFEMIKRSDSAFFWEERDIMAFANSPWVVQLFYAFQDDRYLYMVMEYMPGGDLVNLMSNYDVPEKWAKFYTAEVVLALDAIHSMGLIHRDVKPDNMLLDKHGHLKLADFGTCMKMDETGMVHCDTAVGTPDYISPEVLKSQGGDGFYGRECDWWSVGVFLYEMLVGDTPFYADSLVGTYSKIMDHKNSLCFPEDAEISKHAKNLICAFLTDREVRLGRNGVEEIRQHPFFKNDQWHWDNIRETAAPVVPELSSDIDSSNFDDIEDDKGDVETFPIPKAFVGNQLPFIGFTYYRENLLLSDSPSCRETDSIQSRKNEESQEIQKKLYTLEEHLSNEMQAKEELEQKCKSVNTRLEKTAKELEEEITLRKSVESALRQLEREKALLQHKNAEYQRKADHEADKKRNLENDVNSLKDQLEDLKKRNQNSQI
Sequence of Rho kinase 1 (Q13464 17-535): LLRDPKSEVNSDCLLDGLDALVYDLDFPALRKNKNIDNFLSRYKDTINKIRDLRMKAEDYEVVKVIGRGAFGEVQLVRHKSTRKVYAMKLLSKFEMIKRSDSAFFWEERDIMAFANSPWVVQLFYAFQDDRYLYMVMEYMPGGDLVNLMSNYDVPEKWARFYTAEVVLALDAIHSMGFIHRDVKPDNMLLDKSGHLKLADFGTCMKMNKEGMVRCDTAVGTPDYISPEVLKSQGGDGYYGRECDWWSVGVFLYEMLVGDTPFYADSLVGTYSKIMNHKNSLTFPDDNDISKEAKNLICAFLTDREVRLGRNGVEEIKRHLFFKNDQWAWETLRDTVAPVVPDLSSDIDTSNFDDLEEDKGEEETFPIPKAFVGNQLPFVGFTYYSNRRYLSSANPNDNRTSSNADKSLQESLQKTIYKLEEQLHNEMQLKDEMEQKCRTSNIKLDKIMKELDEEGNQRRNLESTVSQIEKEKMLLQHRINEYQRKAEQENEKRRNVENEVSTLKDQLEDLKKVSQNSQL

Ki (Rho kinase 1) [nM]	Ki (Rho kinase 2; read-out: Rho kinase 2 Ki) [nM]	Compound	Ki (Rho kinase 1; [1]) [nM]	Ki (Rho kinase 2; Rho kinase 2 Ki) [nM]
976	464	c1ccc(CN2C[C@@H]3CC[C@H]2[C@@H]3Nc2ccc3[nH]ncc3c2)cc1 (racemic) [Compound 3.1.01, N-((1SR,4SR,7RS)-2-benzyl-2-azabicyclo[2.2.1]heptan-7-yl)-1H-indazol-5-amine]		
		c1ccc(CN2C3CCC2CC(Nc2ccc4[nH]ncc4c2)C3)cc1 (single isomer, unassigned) [Compound 1.1.01, N-((1RS,3rs,5SR)-8-benzyl-8-azabicyclo[3.2.1]octan-3-yl)-1H-indazol-5-amine]	72	29
		c1ccc(CN2C3CCC2CC(Nc2ccc4[nH]ncc4c2)C3)cc1 (single isomer, unassigned) [Compound 2.1.01, N-((1RS,3sr,5SR)-8-benzyl-8-azabicyclo[3.2.1]octan-3-yl)-1H-indazol-5-amine]	806	220
		Cc1ccc(CN2C3CCC2CC(Nc2ccc4[nH]ncc4c2)C3)cc1 (stereo not drawn) [Compound 1.1.02, N-((1RS,3rs,5SR)-8-(4-methylbenzyl)-8-azabicyclo[3.2.1]octan-3-yl)-1H-indazol-5-amine]	91	20
		OCCOc1cccc(CN2C3CCC2CC(Nc2ccc4[nH]ncc4c2)C3)c1 (stereo not drawn) [Compound 1.1.03, 2-(3-(((1RS,3rs,5SR)-3-((1H-indazol-5-yl)amino)-8-azabicyclo[3.2.1]octan-8-yl)methyl)phenoxy)ethanol]		21
		Cc1ccc(CN2C3CCC2CC(Nc2ccc4[nH]ncc4c2)C3)cc1OCCO (stereo not drawn) [Compound 1.1.04, 2-(5-(((1RS,3rs,5SR)-3-((1H-indazol-5-yl)amino)-8-azabicyclo[3.2.1]octan-8-yl)methyl)-2-methylphenoxy)ethanol]	35	10

— US8476295B2, “Bridged bicyclic RHO kinase inhibitor compounds, composition and use” (Inspire, priority 2009, dated 2013)
